In patent US10730830B2, “Tetrahydronaphthalene derivative” (ONO PHARMACEUTICAL CO., LTD., priority 2016, dated 2020):
Counter-ions that a name gives are not always drawn.

How the values were obtained:
human S1P1 (EDG-1) = human S1P1 (EDG-1) (Homo sapiens (Human), UniProt P21453); assay: Inhibition of binding of [33P]-S1P to S1P1 (EDG-1), CHO cell membrane fractions; settings: [33P]-S1P displacement, CHO membranes overexpressing human S1P1
Method: (§1) Biological Experimental Example 1: Measurement of the Inhibitory Action of the Compound of the Present Invention on Binding of [^33P]-S1P to S1P5 (EDG-8)
(§2) A reaction was carried out in a 96-well microplate by using membrane fractions of Chinese hamster ovary (CHO) cells each of which was made to overexpress human S1P1 (EDG-1) or human S1P5 gene respectively, in an amount of the membrane fraction of 1 mg protein/mL. To each of the wells, 100 μL of a vehicle (DMSO) solution or a two-fold concentration-ligand solution each of which was diluted with Binding Buffer (50 mmol/L, Tris pH 7.5, 5 mmol/L, MgCl2, 0.5% BSA and Complete EDTA free (1 tablet/50 mL)), and 50 μL of 0.16 nmol/L [^33P]-S1P (manufactured by American Radiolabeled Chemicals, Inc.) diluted with Binding Buffer were added. Thereafter, the membrane fraction solutions (50 μL) was added to the wells and the reaction was carried out at room temperature for 60 minutes. After the reaction, suction filtration was carried out by using a 96-well UNIFILTER, and the 96-well microplate was washed with Wash Buffer (50 mmol/L, Tris pH 7.5, 0.5% BSA) ([…]), and thereafter, was dried at 60° C. for 45 minutes. MicroScint (trade name) 20 (50 μL/well) was added and the plate was covered with TopSeal-A, and thereafter, the radioactivity was measured by using TopCount (manufactured by PerkinElmer Inc.).

human S1P5 (EDG-8) [1] = molecular target: T1, human S1P5 (EDG-8) (Homo sapiens (Human), UniProt Q9H228); assay: Inhibition of binding of [33P]-S1P to S1P5 (EDG-8), CHO cell membrane fractions; settings: [33P]-S1P displacement, CHO membranes overexpressing human S1P5
Method: as §1, §2

human S1P5 (EDG-8) [2] = molecular target: T1, human S1P5 (EDG-8); assay: S1P5 receptor agonist activity by monitoring intracellular cyclic AMP in CHO cells overexpressing human S1P5; assay type: cell-based; settings: cAMP, forskolin-stimulated CHO cells overexpressing human S1P5
Method: Biological Example 2: Evaluation of S1P5 Receptor Agonist Activities of the Compound of the Present Invention by Monitoring the Concentration of Produced Intracellular Cyclic AMP
CHO cells which were made to overexpress human S1P5 (EDG-8) gene were cultured in Ham's F12 Medium (manufactured by Gibco-BRL) containing 10% FBS (fetal bovine serum), penicillin/streptomycin and geneticin (0.25 mg/mL). The medium was removed from the cultured cells, the cultured cells were washed once with phosphate-buffered saline, and the cultured cells were treated with a vehicle (DMSO) solution or a compound solution each of which was diluted with Buffer (Hanks' balanced salt solution containing 20 mmol/L HEPES, 0.1 or 0.2% BSA, 1 mmol/L IBMX and 5 μmol/L forskolin) at 37° C. for 30 minutes. Thereafter, the cultured cells were washed once with phosphate-buffered saline, lysis of the cells, and the concentration of cyclic AMP in the cell lysate were measured by using cAMP Assay Kit (Cisbio Bioassays).

T1 sequence (Q9H228 whole entry): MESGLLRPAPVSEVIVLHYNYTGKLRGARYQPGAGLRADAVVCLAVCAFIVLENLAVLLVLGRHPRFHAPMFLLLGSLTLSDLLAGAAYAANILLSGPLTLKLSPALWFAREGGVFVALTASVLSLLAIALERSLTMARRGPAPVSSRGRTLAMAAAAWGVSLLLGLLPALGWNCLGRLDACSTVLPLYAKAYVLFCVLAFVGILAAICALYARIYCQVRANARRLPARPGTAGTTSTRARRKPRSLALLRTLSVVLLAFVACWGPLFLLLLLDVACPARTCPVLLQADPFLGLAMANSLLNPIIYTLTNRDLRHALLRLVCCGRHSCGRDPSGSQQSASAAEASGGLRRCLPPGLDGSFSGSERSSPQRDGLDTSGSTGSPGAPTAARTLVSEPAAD
Sequence of human S1P1 (EDG-1) (P21453 whole entry): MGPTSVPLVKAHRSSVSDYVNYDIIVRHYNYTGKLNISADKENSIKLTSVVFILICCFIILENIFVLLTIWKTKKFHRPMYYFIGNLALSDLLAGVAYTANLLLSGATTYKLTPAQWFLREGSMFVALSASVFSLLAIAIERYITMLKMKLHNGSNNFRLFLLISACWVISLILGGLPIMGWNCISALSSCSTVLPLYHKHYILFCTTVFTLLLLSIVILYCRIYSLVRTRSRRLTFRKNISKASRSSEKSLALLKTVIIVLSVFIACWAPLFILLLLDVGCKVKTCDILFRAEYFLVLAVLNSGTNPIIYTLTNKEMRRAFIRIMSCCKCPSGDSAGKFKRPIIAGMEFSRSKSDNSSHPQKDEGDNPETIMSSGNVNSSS

| IC50 (human S1P1 (EDG-1)) | IC50 (human S1P5 (EDG-8) [1]) | Compound | EC50 (human S1P5 (EDG-8) [2]) |
| --- | --- | --- | --- |
| > 10000 nM | 1 to 100 nM | O=C(O)CCCN1CCc2cccc(OCCOc3ccc(C(F)(F)F)cc3)c2CC1 [Example 18 (10), 4-(6-{2-[4-(Trifluoromethyl)phenoxy]ethoxy}-1,2,4,5-tetrahydro-3H-3-benzazepin-3-yl)butanoic Acid] | – |
| > 30000 nM | 100 to 1000 nM | CN(CCC(=O)O)C1CCc2cccc(OC/C=C/c3ccc(C(F)(F)F)cc3)c2C1 (stereo not drawn) [Example 3 (3), 3-{Methyl[8-({(2E)-3-[4-(trifluoromethyl)phenyl]-2-propen-1-yl}loxy)-1,2,3,4-tetrahydro-2-naphthalenyl]amino}propanoic Acid] | – |
| > 30000 nM | 1000 to 3000 nM | O=C(O)CCCCN1CCCc2c(cccc2OC/C=C/c2ccc(C(F)(F)F)cc2)C1 [Example 49, 5-[6-({(2E)-3-[4-(Trifluoromethyl)phenyl]-2-propen-1-yl}oxy)-1,3,4,5-tetrahydro-2H-2-benzazepin-2-yl]pentanoic Acid] | – |
| – | – | O=C(O)C1CN(C2CCc3cccc(OCCc4cccc5ccccc45)c3C2)C1 (stereo not drawn) [Example 3 (5), 1-{8-[2-(1-Naphthyl)ethoxy]-1,2,3,4-tetrahydro-2-naphthalenyl}-3-azetidinecarboxylic Acid] | 1 to 100 nM |
| > 30000 nM | 1000 to 3000 nM | O=C(O)CCCN1CCc2c(cccc2OCCc2ccc3ccccc3c2)C1 [Example 18 (1), 4-{5-[2-(2-naphthyl)ethoxy]-3,4-dihydro-2(1H)-isoquinolinyl}butanoic Acid trifluoroacetate] | – |
| > 10000 nM | 100 to 1000 nM | O=C(O)CCCN1CCc2cccc(OCC3CCc4ccccc4C3)c2CC1 (stereo not drawn) [Example 18 (16), 4-[6-(1,2,3,4-Tetrahydro-2-naphthalenylmethoxy)-1,2,4,5-tetrahydro-3H-3-benzazepin-3-yl]butanoic Acid] | – |
| > 30000 nM | 1000 to 3000 nM | O=C(O)C1CCN(C2CCc3c(cccc3OC/C=C/c3ccc(C(F)(F)F)cc3)C2)C1 (stereo not drawn) [Example 3 (1), 1-[5-({(2E)-3-[4-(Trifluoromethyl)phenyl]-2-propen-1-yl}oxy)-1,2,3,4-tetrahydro-2-naphthalenyl]-3-pyrrolidinecarboxylic Acid] | – |
| > 30000 nM | 100 to 1000 nM | O=C(O)C1CN(C2Cc3cccc(OCCc4ccccc4)c3C2)C1 (stereo not drawn) [Example 48, 1-[4-(2-Phenylethoxy)-2,3-dihydro-1H-inden-2-yl]-3-azetidinecarboxylic Acid] | – |
| > 10000 nM | 100 to 1000 nM | O=C(O)CCN1CCc2cccc(OC/C=C/c3ccc(C(F)(F)F)cc3)c2CC1 [Example 18 (8), 3-[6-({(2E)-3-[4-(Trifluoromethyl)phenyl]-2-propen-1-yl}oxy)-1,2,4,5-tetrahydro-3H-3-benzazepin-3-yl]propanoic Acid] | – |
| > 10000 nM | 100 to 1000 nM | O=C(O)CCCN1CCc2cccc(OCCc3ccccc3)c2CC1 [Example 18 (22), 4-[6-(2-Phenylethoxy)-1,2,4,5-tetrahydro-3H-3-benzazepin-3-yl]butanoic Acid] | – |
| > 10000 nM | 1 to 100 nM | O=C(O)CCCN1CCc2cccc(OCCCCCc3ccccc3)c2CC1 [Example 18 (24), 4-{6-[(5-Phenylpentyl)oxy]-1,2,4,5-tetrahydro-3H-3-benzazepin-3-yl}butanoic Acid] | – |
| > 10000 nM | 100 to 1000 nM | O=C(O)CCCN1CCc2cccc(OCCCC3CCOCC3)c2CC1 [Example 18 (42), 4-{6-[3-(tetrahydro-2H-pyran-4-yl)propoxy]-1,2,4,5-tetrahydro-3H-3-benzazepin-3-yl}butanoic Acid] | – |
| > 30000 nM | 1000 to 3000 nM | O=C(O)CCCN1CCc2cccc(OC/C=C/c3ccc(C(F)(F)F)cc3)c2C1 [Example 18 (2), 4-[8-({(2E)-3-[4-(Trifluoromethyl)phenyl]-2-propen-1-yl}oxy)-3,4-dihydro-2(1H)-isoquinolinyl]butanoic Acid trifluoroacetate] | – |
| > 10000 nM | 1 to 100 nM | Cc1ccc2c(c1OCCCc1ccccc1)CCN(CCCC(=O)O)CC2 [Example 29, 4-[7-Methyl-6-(3-phenylpropoxy)-1,2,4,5-tetrahydro-3H-3-benzazepin-3-yl]butanoic Acid] | – |
| > 10000 nM | 1 to 100 nM | O=C(O)C1CN(C2CCc3cccc(OCCCc4ccccc4)c3C2)C1 (stereo not drawn) [Example 3 (4), 1-[8-(3-Phenylpropoxy)-1,2,3,4-tetrahydro-2-naphthalenyl]-3-azetidinecarboxylic Acid] | – |
| > 10000 nM | 100 to 1000 nM | O=C(O)CCCN1CCc2cccc(OCCC3Cc4ccccc43)c2CC1 (stereo not drawn) [Example 18 (26), 4-{6-[2-(Bicyclo[4.2.0]octa-1,3,5-trien-7-yl)ethoxy]-1,2,4,5-tetrahydro-3H-3-benzazepin-3-yl}butanoic Acid] | – |
| > 30000 nM | 1000 to 3000 nM | CC(C)c1ccc(/C=C/COc2cccc3c2CCN(CCCC(=O)O)C3)cc1 [Example 18 (3), 4-[5-{[(2E)-3-(4-Isopropylphenyl)-2-propen-1-yl]oxy}-3,4-dihydro-2(1H)-isoquinolinyl]butanoic Acid] | – |
| > 10000 nM | 1 to 100 nM | O=C(O)C1CN(C2CCc3cccc(OCCc4cccc5ccccc45)c3C2)C1 (single isomer, unassigned; (+)) [Example 51 (2), (+)-1-{8-[2-(1-Naphthyl)ethoxy]-1,2,3,4-tetrahydro-2-naphthalenyl}-3-azetidinecarboxylic Acid] | – |
| > 10000 nM | 100 to 1000 nM | O=C(O)CCCN1CCc2cccc(OCCCC3CCCCC3)c2CC1 [Example 18 (14), 4-[6-(3-Cyclohexylpropoxy)-1,2,4,5-tetrahydro-3H-3-benzazepin-3-yl]butanoic Acid] | – |
| > 10000 nM | 100 to 1000 nM | CCCCCCCCOc1cccc2c1CCN(CCCC(=O)O)CC2 [Example 18 (32), 4-[6-(Octyloxy)-1,2,4,5-tetrahydro-3H-3-benzazepin-3-yl]butanoic Acid] | – |
| > 10000 nM | 100 to 1000 nM | O=C(O)CC1(CN2CCc3cccc(OCCc4cccc5ccccc45)c3CC2)CC1 [Example 37, [1-({6-[2-(1-Naphthyl)ethoxy]-1,2,4,5-tetrahydro-3H-3-benzazepin-3-yl}methyl)cyclopropyl]acetic Acid] | – |
| > 30000 nM | 1000 to 3000 nM | O=C(O)CCCN1CCc2c(cccc2OC/C=C/c2ccc(OC(F)F)cc2)C1 [Example 18 (4), 4-[5-({(2E)-3-[4-(Difluoromethoxy)phenyl]-2-propen-1-yl}oxy)-3,4-dihydro-2(1H)-isoquinolinyl]butanoic Acid] | – |
| – | – | O=C(O)CCCN1CCc2cccc(OCCCc3ccccc3)c2CC1 [Example 18 (11), 4-[6-(3-Phenylpropoxy)-1,2,4,5-tetrahydro-3H-3-benzazepin-3-yl]butanoic Acid] | 1 to 100 nM |
| > 10000 nM | 1 to 100 nM | O=C(O)C1CN(C2CCc3cccc(OCCc4cccc5ccccc45)c3C2)C1 (single isomer, unassigned; (-)) [Example 51 (1), (−)-1-{8-[2-(1-Naphthyl)ethoxy]-1,2,3,4-tetrahydro-2-naphthalenyl}-3-azetidinecarboxylic Acid] | – |
| > 10000 nM | 1 to 100 nM | O=C(O)C1CC(N2CCc3cccc(OCCc4cccc5ccccc45)c3CC2)C1 (single isomer, unassigned) [Example 23 (8), 3-{6-[2-(1-Naphthyl)ethoxy]-1,2,4,5-tetrahydro-3H-3-benzazepin-3-yl}cyclobutanecarboxylic Acid] | – |

| Compound | IC50 (human S1P1 (EDG-1)) | IC50 (human S1P5 (EDG-8) [1]) | EC50 (human S1P5 (EDG-8) [2]) |
| --- | --- | --- | --- |
| O=C(O)CCCN1CCc2cccc(OCCc3cccc4ccccc34)c2CC1 [Example 18 (18), 4-{6-[2-(1-Naphthyl)ethoxy]-1,2,4,5-tetrahydro-3H-3-benzazepin-3-yl}butanoic Acid] | > 10000 nM | 1 to 100 nM | 1 to 100 nM |
